Measurements published in EP0109354B1, “Biocidally active mixture” (priority 1982, dated 1984).
Like-named read-outs stand apart in the source and are kept apart here.

Tests used:
[1] = system: Schleimbildung und Algenbewuchs; test: Efficacy in outdoor cooling circuits, visual assessment of growth on the plates; conditions: phosphonium compound alone, same concentration and frequency (21 ppm twice a week); stated conditionally ('würde')
Text: Untersuchung der Wirksamkeit in Kühlkreisläufen
Die im Freien stehenden (natürliche Sonneneinstrahlung, Staubeinfall, Witterungseinflüsse) Kühlkreisläufe bestanden aus: • a) einem Kunststoffass mit einem Volumen von 113 I und einem Überlauf • b) einer Pumpe (21 1/min bei 3 m Förderhöhe) • c) einem Kühlturm mit Oregon-(Splint), Oregon-(Kernholz), Eiche-, Fichte-, Asbestzement- und PVC-Platte
Die Frischwasser-Zufuhr war so eingestellt, dass der Spritz- und Verdunstungsverlust ausgeglichen wurde und die Biocide in 24 h ungefähr 1:2 verdünnt wurden.
Die Kühlkreisläufe sind durch den natürlichen Staubeinfall und nicht durch gezielte Beimpfung infiziert.
Zur Verhinderung der Schleimbildung und des Algenwuchses wurde der Kühlkreislauf mit 21 ppm 2mal/Woche einer Lösung von 45% der Verbindung 17 und 5% der Verbindung 13 in Wasser behandelt.
Ausgewertet wurde der Versuch durch visuelle Beobachtung des Bewuchses auf den Platten.
Der unbehandelte Kreislauf zeigte schon nach 4 Wochen den ersten Algenbewuchs, die Hölzer waren nach 5 Monaten verschleimt und mit einer dicken Algenschicht überzogen. Der mit 21 ppm 2mal/Woche behandelte Kreislauf zeigte keinerlei Anzeichen von beginnender Schleimbildung und Algenbewuchs.

With `CCCCCCCCCCCC[P+](CCCC)(CCCC)CCCC.[Cl-]` [Verbindung 16, Tri-n-butyl-n-dodecyl-phosphoniumchlorid] the “P-Verbindung (Mol-%) Endkonzentration” value (Bsp. 6: as Beispiel 1, P compound 16 with Sn compound 2) was 17,9 Mol-%.

With Tri-n-butylzinnaphtenat [Verbindung 8] the “Sn-Verbindung (Mol-%) Endkonzentration” value (Bsp. 4: as Beispiel 1, Sn compound 8 in solution of P compound 17) was 7,1 Mol-%.

For `CCCCCCCCCC[P+](CCCC)(CCCC)CCCC.[Cl-]` [Verbindung 18, Tri-n-butyl-n-decyl-phosphoniumchlorid], the “P-Verbindung (Mol-%) Endkonzentration” value (Bsp. 5: as Beispiel 1, P compound 18 with Sn compound 2) was 19,2 Mol-%.

In the case of `CCCCCCCCCCCCCC[P+](CCCC)(CCCC)CCCC.[Cl-]` [Verbindung 17, Tri-n-butyl-tetradecyl-phosphoniumchlorid], the “Unterdrückung des Algenbewuchses” value [1] is reported as “nicht gänzlich unterdrücken”, the “Endkonzentration der P-Verbindung” value (Beispiel 2: with 3,8 Mol-% of Vrb. 3 dissolved) is reported as 15.3 Mol-% and the “Endkonzentration der P-Verbindung” value (Beispiel 3: with 2,9 Mol-% of Vrb. 2 dissolved) is reported as 16,7 Mol-%. For the same molecule, the “P-Verbindung (Mol-%) Endkonzentration” value (Bsp. 4: as Beispiel 1, P compound 17 with Sn compound 8) was 13,1 Mol-%.

In the case of `CCCCCCCCCCCCCC[P+](CCCC)(CCCC)CCCC.[Br-]` [Verbindung 19, Tri-n-butyl-n-tetradecylphosphoniumbromid], the “P-Verbindung (Mol-%) Endkonzentration” value (Bsp. 7: as Beispiel 1, P compound 19 with Sn compound 2) is reported as 15,9 Mol-%.
